The results in this text go back to patent US8404434B2, “Method for determining degree of negative effect of macrophages on vertebrate” (Yamasa Corporation, priority 2006, dated 2013).

Each structure is given as a SMILES string.

In assay [1] the test system is Peritoneal macrophages. Put plainly: Diacetylspermine production by cultured macrophages with the tricarboxylate carrier inhibitor BTA. It is filed as cell-based, mice. The method, then: (§1) Peritoneal macrophages collected from mice injected with thioglycollate were inoculated into a 96-well microplate (1.25×10^5 cells/well), followed by culturing. In this case, cell culture was performed by use of RPMI 1640 medium containing 10% horse serum, the medium being supplemented with spermine (i.e., a raw material of diacetylpolyamine) (10 μM) and glucose (0, 1, or 2 g/L).
(§2) After completion of culturing, the levels of diacetylspermine and residual glucose contained in the medium were measured through a customary method. As is clear from FIG. 1, diacetylspermine is produced in response to depletion of glucose.
In order to examine the origin of acetyl CoA (i.e., a raw material of diacetylpolyamine), 1,2,3-benzyltricarboxylate (BTA), which is an inhibitor of a tricarboxylate carrier used for transportation of citrate from mitochondria to the cytoplasm, was added in an amount of 10 mM to a medium supplemented with no glucose, followed by measurement of diacetylspermine level.

Assay [2] concerns Peritoneal macrophages. Briefly: Diacetylspermine production by cultured macrophages with the uncoupler DNP. The class given is cell-based, mice. Conditions: DNP 100 μM in medium, glucose 2 g/L, spermine 10 μM, cultured for two days; level in medium. The method, then: as §1, §2
Dinitrophenol (DNP), which is a reagent called “uncoupler” that forcibly reduces the active potential of mitochondria, is added to a medium in an amount of 100 μM, followed by culturing for two days in a manner similar to that described above. After completion of culturing, diacetylspermine level was measured. The medium was supplemented with glucose in an amount of 2 g/L.

Compound `O=C(O)c1cccc(C(=O)O)c1C(=O)O` [BTA, 1,2,3-benzyltricarboxylate] had a Diacetylspermine with Peritoneal macrophages [1] (BTA 10 mM in medium supplemented with no glucose, level in medium) of 43.0 nM. Also, in the assay with Peritoneal macrophages [1] (BTA 10 mM, medium without glucose, result in words), the production of diacetylspermine entry was “inhibited”.
In the assay with Peritoneal macrophages [2], `O=[N+]([O-])c1ccc(O)c([N+](=O)[O-])c1` [DNP, Dinitrophenol] displayed a Diacetylspermine of 61.8 nM.
